Measured values from US12466822B2, “Heterocyclic compounds as immunomodulators” (Incyte Corporation, priority 2016, dated 2025).

Each compound was assayed against T1, PD-1/PD-L1 protein/protein interaction (recombinant human PD-L1 protein (19-238), recombinant human PD-1 protein (25-167)) (Homo sapiens, UniProt Q9NZQ7) (assay: PD-1/PD-L1 Homogeneous Time-Resolved Fluorescence (HTRF) Binding Assay). Details: 25° C., PBS buffer (pH 7.4), 40 minutes preincubation with inhibitors.
T1 construct: Recombinant human PD-L1 protein (19-238) with a His-tag at the C-terminus; purchased AcroBiosystems PD1-H5229 (PD-L1-His); PD1-H5257 (PD-1-Fc)
T1 sequence (Q9NZQ7 19-238): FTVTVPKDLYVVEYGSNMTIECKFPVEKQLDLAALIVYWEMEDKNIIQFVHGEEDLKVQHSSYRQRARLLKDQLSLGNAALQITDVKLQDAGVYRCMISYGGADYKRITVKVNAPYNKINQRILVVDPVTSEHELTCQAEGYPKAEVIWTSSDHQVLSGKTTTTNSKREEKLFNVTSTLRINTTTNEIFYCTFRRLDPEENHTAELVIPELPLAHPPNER
Description: The assays were conducted in a standard black 384-well polystyrene plate with a final volume of 20 μL. Inhibitors were first serially diluted in DMSO and then added to the plate wells before the addition of other reaction components. The final concentration of DMSO in the assay was 1%. The assays were carried out at 25° C. in the PBS buffer (pH 7.4) with 0.05% Tween-20 and 0.1% BSA. Recombinant human PD-L1 protein (19-238) with a His-tag at the C-terminus was purchased from AcroBiosystems (PD1-H5229). Recombinant human PD-1 protein (25-167) with Fc tag at the C-terminus was also purchased from AcroBiosystems (PD1-H5257). PD-L1 and PD-1 proteins were diluted in the assay buffer and 10 μL was added to the plate well. Plates were centrifuged and proteins were preincubated with inhibitors for 40 minutes. The incubation was followed by the addition of 10 μL of HTRF detection buffer supplemented with Europium cryptate-labeled anti-human IgG (PerkinElmer-AD0212) specific for Fc and anti-His antibody conjugated to SureLight®-Allophycocyanin (APC, PerkinElmer-AD0059H). After centrifugation, the plate was incubated at 25° C. for 60 min. before reading on a PHERAstar FS plate reader (665 nm/620 nm ratio). Final concentrations in the assay were […], 10 nM PD-L1, 1 nM europium anti-human IgG and 20 nM anti-His-Allophycocyanin. IC50 determination was performed by fitting the curve of percent control activity versus the log of the inhibitor concentration using the GraphPad Prism 5.0 software.
`Cc1c(Nc2nccc3cc(CN4CC[C@@H](O)C4)cnc23)cccc1-c1cccc(NC(=O)c2nc3c(n2C)CCN(CC[C@H]2CC[C@H](C(=O)O)CC2)C3)c1Cl` (single isomer, unassigned) [Example 52] showed an IC50 of no more than 10 nM.
In the case of `Cc1c(Nc2nccc3cc(CN4CC[C@@H](O)C4)cnc23)cccc1-c1cccc(NC(=O)c2nc3c(n2C)CCN(CC[C@H]2CC[C@@H](C(=O)O)CC2)C3)c1Cl` (single isomer, unassigned) [Example 53], the IC50 is reported as no more than 10 nM.
`Cc1c(NC(=O)c2nc3c(n2C)CCN(C2CCC(C)(C(=O)O)CC2)C3)cccc1-c1cccc(Nc2nccc3cc(CN4CC[C@@H](O)C4)cnc23)c1C` (single isomer, unassigned) [Example 62-peak1] gave an IC50 of no more than 10 nM.
`Cc1c(NC(=O)c2nc3c(n2C)CCN(C2CCC(C)(C(=O)O)CC2)C3)cccc1-c1cccc(Nc2nccc3cc(CN4CC[C@@H](O)C4)cnc23)c1C` (single isomer, unassigned) [Example 62-peak2] showed an IC50 of no more than 10 nM.
`Cc1c(NC(=O)c2nc3c(n2C)CCN(C2CCC(C(=O)O)CC2)C3)cccc1-c1cccc(Nc2nccc3cc(CN4CC[C@@H](O)C4)cnc23)c1C` (single isomer, unassigned) [Example 64-peak1] showed an IC50 of no more than 10 nM.
Work on `Cc1c(NC(=O)c2nc3c(n2C)CCN(C2CCC(C(=O)O)CC2)C3)cccc1-c1cccc(Nc2nccc3cc(CN4CC[C@@H](O)C4)cnc23)c1C` (single isomer, unassigned) [Example 64-peak2] yielded an IC50 of no more than 10 nM.
With `Cc1c(Nc2ncnc3cc(CN4CC[C@@H](O)C4)cnc23)cccc1-c1cccc(NC(=O)c2nc3c(n2C)CCN(C2CCC(C)(C(=O)O)CC2)C3)c1Cl` (single isomer, unassigned) [Example 68-peak1] the IC50 was no more than 10 nM.
`Cc1c(Nc2ncnc3cc(CN4CC[C@@H](O)C4)cnc23)cccc1-c1cccc(NC(=O)c2nc3c(n2C)CCN(C2CCC(C)(C(=O)O)CC2)C3)c1Cl` (single isomer, unassigned) [Example 68-peak2] gave an IC50 of no more than 10 nM.
Work on `Cc1c(-c2nc3c(s2)CNCC3)cccc1-c1cccc(Nc2nccc3cc(CNCCO)cnc23)c1Cl` [Example 1, 2-(((8-((2-chloro-2′-methyl-3′-(4,5,6,7-tetrahydrothiazolo[5,4-c]pyridin-2-yl)-[1,1′-biphenyl]-3-yl)amino)-1,7-naphthyridin-3-yl)methyl)amino)ethan-1-ol] yielded an IC50 of no more than 10 nM.
`Cc1c(Nc2nccc3cc(CNCCO)cnc23)cccc1-c1cccc(NC(=O)c2ccc(CNC3(C(=O)O)CCC3)cn2)c1F` [Example 2, 1-(((6-(2-fluoro-3′-(3-((2-hydroxyethylamino)methyl)-1,7-naphthyridin-8-ylamino)-2′-methylbiphenyl-3-ylcarbamoyl)pyridin-3-yl)methyl)amino)cyclobutanecarboxylic acid] gave an IC50 of no more than 10 nM.
`Cc1c(Nc2nccc3cc(CNCCO)cnc23)cccc1-c1cccc(NC(=O)c2ccc(CN3CCCC[C@H]3C(=O)O)cn2)c1F` [Example 3, (S)-1-((6-((2-fluoro-3′-((3-(((2-hydroxyethyl)amino)methyl)-1,7-naphthyridin-8-yl)amino)-2′-methyl-[1,1′-biphenyl]-3-yl)carbamoyl)pyridin-3-yl)methyl)piperidine-2-carboxylic acid] was tested, and the IC50 was no more than 10 nM.
For `Cc1c(Nc2nccc3cc(CNCCO)cnc23)cccc1-c1cccc(NC(=O)c2ccc(CNCCO)cn2)c1F` [Example 4, N-(2-fluoro-3′-((3-(((2-hydroxyethyl)amino)methyl)-1,7-naphthyridin-8-yl)amino)-2′-methyl-[1,1′-biphenyl]-3-yl)-5-(((2-hydroxyethyl)amino)methyl)picolinamide], the IC50 was no more than 10 nM.
For `Cc1c(Nc2nccc3cc(CNCCO)cnc23)cccc1-c1cccc(NC(=O)c2ccc(CNCCO)cn2)c1Cl` [Example 5, N-(2-chloro-3′-((3-(((2-hydroxyethyl)amino)methyl)-1,7-naphthyridin-8-yl)amino)-2′-methyl-[1,1′-biphenyl]-3-yl)-5-(((2-hydroxyethyl)amino)methyl)picolinamide], the IC50 was no more than 10 nM.
`Cc1c(Nc2nccc3cc(CN4CC[C@@H](O)C4)cnc23)cccc1-c1cccc(NC(=O)c2ccc(CN3CC[C@@H](O)C3)cn2)c1Cl` [Example 6, N-(2-chloro-3′-((3-(((R)-3-hydroxypyrrolidin-1-yl)methyl)-1,7-naphthyridin-8-yl)amino)-2′-methyl-[1,1′-biphenyl]-3-yl)-5-(((R)-3-hydroxypyrrolidin-1-yl)methyl)picolinamide] showed an IC50 of no more than 10 nM.
`Cc1c(Nc2nccc3cc(CN4CC[C@@H](C(=O)O)C4)cnc23)cccc1-c1cccc(NC(=O)c2ccc(CN3CC[C@@H](O)C3)cn2)c1Cl` [Example 7, (R)-1-((8-((2′-chloro-3′-(5-(((R)-3-hydroxypyrrolidin-1-yl)methyl)picolinamido)-2-methyl-[1,1′-biphenyl]-3-yl)amino)-1,7-naphthyridin-3-yl)methyl)pyrrolidine-3-carboxylic acid] showed an IC50 of no more than 10 nM.
Compound `Cc1c(Nc2nccc3cc(CN4CC(C(=O)O)C4)cnc23)cccc1-c1cccc(NC(=O)c2ccc(CN3CC[C@@H](O)C3)cn2)c1Cl` [Example 8, (R)-1-((8-((2′-chloro-3′-(5-((3-hydroxypyrrolidin-1-yl)methyl)picolinamido)-2-methyl-[1,1′-biphenyl]-3-yl)amino)-1,7-naphthyridin-3-yl)methyl)azetidine-3-carboxylic acid] has an IC50 of no more than 10 nM.
`Cc1c(Nc2nccc3cc(CN4CC[C@@H](O)C4)cnc23)cccc1-c1cccc(Nc2nccc3cc(CN4CC[C@@H](C(=O)O)C4)cnc23)c1C` [Example 9, (R)-1-((8-((3′-((3-(((R)-3-hydroxypyrrolidin-1-yl)methyl)-1,7-naphthyridin-8-yl)amino)-2,2′-dimethyl-[1,1′-biphenyl]-3-yl)amino)-1,7-naphthyridin-3-yl)methyl)pyrrolidine-3-carboxylic acid] gave an IC50 of no more than 10 nM.
Work on `Cc1c(Nc2nccc3cc(CN4CC[C@@H](O)C4)cnc23)cccc1-c1cccc(Nc2nccc3cc(CN4CC[C@H](C(=O)O)C4)cnc23)c1C` [Example 10, (S)-1-((8-((3′-((3-(((R)-3-hydroxypyrrolidin-1-yl)methyl)-1,7-naphthyridin-8-yl)amino)-2,2′-dimethyl-[1,1′-biphenyl]-3-yl)amino)-1,7-naphthyridin-3-yl)methyl)pyrrolidine-3-carboxylic acid] yielded an IC50 of no more than 10 nM.
In the case of `Cc1c(Nc2nccc3cc(CNCCO)cnc23)cccc1-c1cccc(Nc2nccc3cc(CN4CC[C@@H](C(=O)O)C4)cnc23)c1C` [Example 11, (R)-1-((8-((3′-((3-(((2-hydroxyethyl)amino)methyl)-1,7-naphthyridin-8-yl)amino)-2,2′-dimethyl-[1,1′-biphenyl]-3-yl)amino)-1,7-naphthyridin-3-yl)methyl)pyrrolidine-3-carboxylic acid], the IC50 is reported as no more than 10 nM.
With `Cc1c(Nc2nccc3cc(CN4CC[C@H](O)C4)cnc23)cccc1-c1cccc(Nc2nccc3cc(CN4CC[C@@H](C(=O)O)C4)cnc23)c1C` [Example 12, (R)-1-((8-((3′-((3-(((S)-3-hydroxypyrrolidin-1-yl)methyl)-1,7-naphthyridin-8-yl)amino)-2,2′-dimethyl-[1,1′-biphenyl]-3-yl)amino)-1,7-naphthyridin-3-yl)methyl)pyrrolidine-3-carboxylic acid] the IC50 was no more than 10 nM.
